Assay results from PubChem BioAssay (NCI).
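Compound exposure: 48 hours, 5 concentrations, 96-well plates. GI50 is the concentration that inhibits growth by half. Definition used: TGI = concentration required for complete inhibition of growth.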 Where a SMILES comes first, the peptide text is derived from it. The star is where a group is joined. Bn = c1ccc(C*)cc1

How the values were obtained:
Experiment in all cases: growth of human tumour cells (NCI), 48 h
ACHN renal = system: ACHN renal
BT-549 breast = system: BT-549 breast
CCRF-CEM leukemia = system: CCRF-CEM leukemia
COLO 205 colon = system: COLO 205 colon
HCT-15 colon = system: HCT-15 colon
HOP-92 NSCLC = system: HOP-92 NSCLC
MDA-MB-231 breast = system: MDA-MB-231 breast
NCI-H23 lung = system: NCI-H23 lung
RXF 393 renal = system: RXF 393 renal
SR leukemia = system: SR leukemia

Row | SMILES | GI50 (ACHN renal) | TGI (ACHN renal) | GI50 (BT-549 breast) | TGI (BT-549 breast) | GI50 (CCRF-CEM leukemia) | TGI (CCRF-CEM leukemia) | GI50 (COLO 205 colon) | TGI (COLO 205 colon) | GI50 (HCT-15 colon) | TGI (HCT-15 colon) | GI50 (HOP-92 NSCLC) | TGI (HOP-92 NSCLC) | GI50 (MDA-MB-231 breast) | TGI (MDA-MB-231 breast) | GI50 (NCI-H23 lung) | TGI (NCI-H23 lung) | GI50 (RXF 393 renal) | TGI (RXF 393 renal) | GI50 (SR leukemia) | TGI (SR leukemia)
1 | COc1ccc(-c2csc(NC(=O)CSc3nc(C)c(-c4ccccc4)n3Nc3ccccc3)n2)cc1 | > 100 µM | > 100 µM | 8.93 µM | > 100 µM | 3.92 µM | > 100 µM | 9.7 µM | > 100 µM | 6.9 µM | > 100 µM | > 100 µM | > 100 µM | 13.3 µM | > 100 µM | 4.96 µM | > 100 µM | > 100 µM | > 100 µM | 5.47 µM | > 100 µM
2 | CC1C(c2ccc3c(c2)OCO3)c2cc3c(cc2OC1N1CCOCC1)OCO3 (stereo not given) | – | > 100 µM | – | > 100 µM | – | 73.3 µM | – | 47.4 µM | – | > 93.7 µM | – | 78.4 µM | – | > 100 µM | – | > 100 µM | – | 51.9 µM | – | > 80.2 µM
3 | COC(=O)C(CC(C)C)NC(=O)C(N)Cc1ccc(OCc2ccccc2)cc1 (stereo not given) (H-Tyr(Bn)-Leu-OMe; configuration not given here) | – | > 10 µM | – | > 10 µM | – | > 10 µM | – | > 10 µM | – | > 10 µM | – | > 10 µM | – | > 10 µM | – | > 10 µM | – | > 10 µM | – | > 10 µM
4 | Nc1nc(Nc2ccc(Cl)cc2)sc1C(=O)c1cccs1 | – | > 100 µM | – | > 100 µM | – | > 100 µM | – | > 100 µM | – | > 100 µM | – | > 100 µM | – | > 100 µM | – | > 100 µM | – | 42 µM | – | 14.9 µM
5 | C=C1C(=O)OC2/C=C(/C)C3(O)OC(C)(CC(OC(=O)C(C)C)C12)CC3OC(C)=O (stereo not given) | – | 8.67 µM | – | 22.3 µM | – | > 25.5 µM | – | 18.1 µM | – | 24.5 µM | – | 40.1 µM | – | > 42.6 µM | – | 18.6 µM | – | 6.82 µM | – | > 31.5 µM
6 | NS(=O)(=O)c1ccc(NC(NC(=O)C(C(F)(F)F)C(F)(F)F)(C(F)(F)F)C(F)(F)F)cc1 | – | > 100 µM | – | > 100 µM | – | > 100 µM | – | > 100 µM | – | > 100 µM | – | > 100 µM | – | > 100 µM | – | > 100 µM | – | > 100 µM | – | > 100 µM
7 | N#CCCN(CCC#N)c1ccc(/C=C2\SC(=S)NC2=O)cc1Br | – | > 100 µM | – | > 100 µM | – | > 100 µM | – | > 100 µM | – | > 100 µM | – | > 100 µM | – | 79.6 µM | – | > 100 µM | – | > 100 µM | – | > 100 µM
8 | Cc1cn2c(C)csc2c1P(=O)(OC(C)C)OC(C)C | – | > 100 µM | – | > 100 µM | – | > 100 µM | – | > 100 µM | – | > 100 µM | – | > 100 µM | – | > 100 µM | – | > 100 µM | – | > 100 µM | – | > 100 µM
9 | CCCCC/C(C=O)=C\c1ccccc1 | – | > 100 µM | – | > 100 µM | – | > 100 µM | – | > 100 µM | – | > 100 µM | – | > 100 µM | – | > 100 µM | – | > 100 µM | – | > 100 µM | – | > 100 µM
10 | O=C(CCc1cccc(O)c1)NCCCNC(=O)CCc1cccc(O)c1 | – | > 100 µM | – | > 100 µM | – | > 100 µM | – | > 100 µM | – | > 100 µM | – | > 100 µM | – | > 100 µM | – | > 100 µM | – | > 100 µM | – | > 100 µM
11 | Cn1ccnc1Sc1ccc(C=Nc2ccc3nc(SCC(=O)NC4CCCCC4)sc3c2)cc1[N+](=O)[O-] | – | > 100 µM | – | 46.8 µM | – | > 100 µM | – | > 100 µM | – | > 100 µM | – | 32.5 µM | – | 99.4 µM | – | > 100 µM | – | 23.4 µM | – | > 100 µM
12 | COc1c(O)c(O)cc2c1-c1ccc(OC)c(=O)cc1C(NC(C)=O)CC2 (stereo not given) | – | > 96.5 µM | – | 14.9 µM | – | 40.2 µM | – | 9.07 µM | – | > 100 µM | – | 17.8 µM | – | > 59.4 µM | – | 34.2 µM | – | > 41.2 µM | – | > 100 µM
13 | CC1=C[C@@H](C)C[C@]2(C)CC[C@H](O2)[C@]23CC[C@](C(=O)O)(C[C@H](O2)[C@@H]2O[C@@](C)(CC2=O)[C@@H](O)[C@H]2CC[C@@]4(CCC[C@@H](O4)[C@H](C)C(=O)O[C@H]4C[C@H]([C@]5(O)OCC[C@H](C)[C@@H]5O)O[C@H]4C=C1)O2)O3 | – | > 10 µM | – | > 10 µM | – | > 10 µM | – | > 10 µM | – | > 10 µM | – | > 8.25 µM | – | > 10 µM | – | > 10 µM | – | > 10 µM | – | > 10 µM
